For orientation: logP means the decadic logarithm of the partition coefficient of the neutral form, usually between octanol and water. A low value points to lower lipophilicity. `CCCOc1ccc(C(=O)CCN2CCCCC2)cc1` registered a logP of 3.72.

For the compound `Cc1cc(C)c(C(=O)C(C)CN2CCCCC2)c(C)c1` (stereo not drawn), the logP came to 3.98.

As to `Cc1cccc(C)c1C(=O)CCN1CCCCC1`, the logP stood at 3.53. The result for `CCCOc1ccc(C(=O)C(C)(C)CN2CCCCC2)cc1` reads 4.07; that for `Cc1cccc(C)c1C(=O)C(C)(C)CN1CCCCC1`, 4.2. As for `Cc1ccc(C(=O)C(C)CN2CCCCC2)c(C)c1` (stereo not drawn), the figure is 3.85. As for `Cc1ccc(C(=O)CCN2CCCCC2)cc1`, the figure is 3.55. The compound `Cc1ccccc1C(=O)C(C)CN1CCCCC1` (stereo not drawn) gave a logP of 3.69.

`CCCOc1ccc(C(=O)CCN2CCCCC2)c(C)c1` yielded a logP of 3.88. The result for `CCCOc1cc(C)c(C(=O)CCN2CCCCC2)c(C)c1` reads 3.84.

For the compound `CCCOc1cc(C)c(C(=O)C(C)CN2CCCCC2)c(C)c1` (stereo not drawn), the logP is 4.11. As for `CC(CN1CCCCC1)C(=O)c1ccccc1` (stereo not drawn), the figure is 3.51; as for `CCCOc1cc(C)c(C(=O)C(C)(C)CN2CCCCC2)c(C)c1`, 4.51; as for `Cc1cc(C)c(C(=O)CCN2CCCCC2)c(C)c1`, 3.7. `Cc1cccc(C)c1C(=O)C(C)CN1CCCCC1` (stereo not drawn) came in with a logP of 3.81.

The compound `CCCOc1ccc(C(=O)C(C)CN2CCCCC2)cc1` (stereo not drawn) showed a logP of 3.81. The result for `CC(C)(CN1CCCCC1)C(=O)c1ccccc1` reads 3.78.

`CCCOc1ccc(C(=O)C(C)CN2CCCCC2)c(C)c1` (stereo not drawn): the logP worked out at 4. For `Cc1cc(C)c(C(=O)C(C)(C)CN2CCCCC2)c(C)c1`, the logP turned out to be 4.36.

For `Cc1ccccc1C(=O)CCN1CCCCC1`, the logP stood at 3.54. The result for `Cc1ccc(C(=O)C(C)CN2CCCCC2)cc1` (stereo not drawn) reads 3.65; that for `Cc1ccc(C(=O)C(C)(C)CN2CCCCC2)cc1`, 3.92. The result for `Cc1ccc(C(=O)CCN2CCCCC2)c(C)c1` reads 3.71.

(Values after the SangsterLogP compilation.)
